Test results from patent US3932425A, “Benzospiran derivatives” (The Upjohn Company, priority 1974, dated 1976).

Legend:
Format in all cases: in vivo
mice [1] = assay: Chimney test (tranquilizing effect; ability of mice to back up and out of a vertical glass cylinder within 30 seconds); conditions: Mus musculus, ip, intraperitoneal injection, 50 percent of the mice failed within 30 seconds, read-out: ED50, Ch (chimney test)
From the text: (§1) The free bases and acid addition salts of the novel compounds of Formula I are useful as central nervous system (CNS) depressants when administered to humans and animals.
(§2) Tranquilizing effects of compounds of this invention are shown by the following tests in mice:
Chimney test: [Med. Exp. 4, 145 (1961)]: The test determines the ability of mice to back up and out of a verticle glass cylinder within 30 seconds. At the effective dosage, 50 percent of the mice failed doing it.

mice [2] = assay: Pedestal test (tranquilizing effect; mice staying on the pedestal for more than 1 minute); conditions: Mus musculus, ip, 1 min, intraperitoneal injection, stay on the pedestal for more than 1 minute, read-out: ED50, P (pedestal test)
Method: as §1, §2
Pedestal test: The untreated mouse leaves a standard pedestal in less than a minute to climb back to the floor of the standard mouse box. Tranquilized mice will stay on the pedestal for more than 1 minute.

mice [3] = assay: Nicotine antagonism test (nicotine salicylate 2 mg./kg. overstimulation, convulsions, tonic extensor fits, death); conditions: Mus musculus, ip, intraperitoneal injection 30 minutes before nicotine salicylate 2 mg./kg., (3) = death, read-out: ED50, Ni (nicotine antagonism (3) test)
Method: as §2
Nicotine antagonism test: Mice in a group of 6 are injected with the test compound. Thirty minutes later the mice including control (untreated) mice are injected with nicotine salicylate (2 mg./kg.). The control mice show overstimulation, i.e., (1) running convulsions followed by (2) tonic extensor fits; followed by (3) death.
Ni = nicotine antagonism (3) test

mice [4] = assay: Dish test (tranquilizing effect; mice remaining in Petri dish for more than 3 minutes); conditions: Mus musculus, ip, 0.05 h, intraperitoneal injection, 50 percent of the mice remain in the dish more than 3 minutes, read-out: ED50, D (dish test)
Method: as §1, §2
Dish test: Mice in Petri dishes (10 cm. diameter, 5 cm. high, partially embedded in wood shavings), climb out in a very short time, when not treated. Mice remaining in the dish for more than 3 minutes indicates tranquilization. ED50 equals the dose of test compound at which 50 percent of the mice remain in the dish.

rats = assay: Hypotensive activity (manner of Weeks and Jones, Proc. Soc. Exp. Biol. and Med. 104, 646 (1960)); conditions: Rattus norvegicus; oral administration to rats; read-out: MED100 (minimal effective dose), hypotensive
From the text: The free bases and pharmacologically acceptable acid addition salts of the compounds of Formula I (a, b and c) are also useful in lowering blood pressure when administered to humans and animals. This activity makes them useful in the treatment of essential hypertension. […] Exp. Biol. and Med. 104, 646 (1960). The following compounds typical of this invention have (by oral administration to rats) MED100 (minimal effective dose) as shown in the table below.

SMILES	ED50 (mice [1])	ED50 (mice [2])	ED50 (mice [3])	ED50 (mice [4])	minimal effective dose (rats)
Cl.O=C(CCCNC1CCC2(CCCc3ccccc32)CC1)c1ccc(F)cc1 (centres unmarked) [4'-Fluoro-4-[3',4'-dihydrospiro[cyclohexane-1,1'(2'H)-naphthalen]-4-ylamino]butyrophenone hydrochloride]	25 mg/kg	16 mg/kg	5 mg/kg	10 mg/kg	–
Cl.O=C(CCCNC1CCC2(CC1)Cc1ccccc1C2O)c1ccc(F)cc1 (centres unmarked) [4'-Fluoro-4-[[1'-hydroxyspiro[cyclohexane-1,2'-indan]-4-yl]amino]butyrophenone hydrochloride]	–	–	–	–	50 mg/kg
Cl.O=C(CCCNC1CCC2(CCc3ccccc3C2)CC1)c1ccc(F)cc1 (centres unmarked) [4'-Fluoro-4-[[3',4'-dihydrospiro[cyclohexane-1,2'(1'H)-naphthalen]-4-yl]amino]butyrophenone hydrochloride]	9.9 mg/kg	12.5 mg/kg	7 mg/kg	9.9 mg/kg	–
Cl.O=C(CCCNC1CCC2(CC1)Cc1ccccc1C2)c1ccc(F)cc1 [4'-Fluoro-4-[[spiro[cyclohexane-1,2'-indan]-4-yl]amino]butyrophenone hydrochloride]	–	–	–	–	50 mg/kg
CN(CCCC(=O)c1ccc(F)cc1)C1CCC2(CC1)Cc1ccccc1C2.Cl [4'-Fluoro-4-[methyl[spiro[cyclohexane-1,2'-indan]-4-yl]amino]butyrophenone hydrochloride]	16 mg/kg	9 mg/kg	4 mg/kg	3.6 mg/kg	–
